Results from PubChem BioAssay (NCI).
“And” between values parts separate entries of the source, which are not always exact repeats. Identical values can stand only once.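 A five-concentration, 48-hour dose response in 96-well plates underlies each endpoint, interpolated linearly between surrounding concentrations. Abbreviation: GI50, concentration required for 50% inhibition of growth. TGI: concentration producing complete growth inhibition.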

What was measured:
Assay in all cases: inhibition of tumour cell growth, NCI panel, 48 h
[1] = system: K-562 leukemia
[2] = system: SNB-75 CNS
[3] = system: HOP-62 NSCLC
[4] = system: HT29 colon
[5] = system: M14 melanoma
[6] = system: HOP-92 NSCLC
[7] = system: MALME-3M melanoma
[8] = system: MDA-MB-435
[9] = system: LOX IMVI melanoma
[10] = system: NCI-H522 lung
[11] = system: EKVX NSCLC
[12] = system: SNB-19 CNS
[13] = system: HCT-15 colon
[14] = system: COLO 205 colon
[15] = system: SK-MEL-2 melanoma
[16] = system: UO-31 renal
[17] = system: NCI/ADR-RES ovarian
[18] = system: SW-620 colon
[19] = system: SR leukemia

Structure (SMILES) | TGI [1] [µM] | TGI [2] [µM] | TGI [3] [µM] | TGI [4] [µM] | TGI [5] [µM] | TGI [6] [µM] | TGI [7] [µM] | TGI [8] [µM] | TGI [9] [µM] | TGI [10] [µM] | TGI [11] [µM] | TGI [12] [µM] | TGI [13] [µM] | TGI [14] [µM] | TGI [15] [µM] | TGI [16] [µM] | TGI [17] [µM] | TGI [18] [µM] | TGI [19] [µM] | GI50 [11]
CCOC(=O)c1cn(CC)c2ccc3ccsc3c2c1=O | > 100 | > 100 | > 100 | > 100 | > 100 | > 100 | > 100 | > 100 | > 100 | > 100 | > 100 | > 100 | > 100 | > 100 | > 100 | > 100 | > 100 | > 100 | – | –
CCOC(=O)/C(=C/c1ccccc1Br)P(=O)(OCC)OCC | 2 | 6.02 | 12 | 13.9 | 2.95 | 3.45 | 3.47 | – | 3.09 | 2.32 | 8.16 | 6.21 | 5.87 | – | 3.7 | – | – | 4.45 | – | –
O=C1NC(=O)C2C1C1C=C3c4ccccc4N(c4ccccc4)C32[C@H]2C(=O)NC(=O)[C@@H]12 (stereo not given in full) | > 100 | > 100 | > 100 | > 100 | > 100 | > 100 | > 100 | – | > 100 | > 100 | > 100 | > 100 | > 100 | > 100 | > 100 | > 100 | – | > 100 | – | –
Cc1c(-c2nc(N)c(C#N)c(N)c2C#N)c(=O)oc2ccccc12 | > 100 | > 100 | > 100 | > 100 | > 100 | > 100 | > 100 | – | > 100 | – | > 100 | > 100 | > 100 | > 100 | > 100 | > 100 | > 100 | > 100 | – | –
O=C(O)C1=CN(c2ccncc2)C(c2ccco2)=CC1c1ccccc1[N+](=O)[O-] (stereo not given) | > 100 | 22.1 | 32.9 | 6.18 | 23.4 | 27.7 | 26.4 | > 57.6 | 3.85 | 25.3 | 23.8 | 27.8 | 4.75 | 32.9 | 34.3 | 23.3 | > 69.8 | > 31.7 | – | –
CCCCCC#COC1CC(C)CC[C@@H]1C(C)C (stereo not given in full) | > 100 | > 100 | > 100 | > 100 | > 100 | > 100 | > 100 | – | 29.9 | 52.2 | > 100 | > 100 | > 100 | > 100 | > 100 | > 100 | – | 34.1 | – | –
COc1cc2cc3c4cc(OC)c(OC)cc4cc[n+]3c(C)c2cc1OC | > 100 | 45.7 | – | > 100 | – | > 100 | > 100 | > 100 | > 100 | > 100 | > 100 | > 100 | > 100 | > 100 | > 100 | > 100 | > 100 | > 100 | – | –
c1ccc2cc(CNCCCCNCCCNCc3ccc4ccccc4c3)ccc2c1 | – | 2.95 | 3.31 | 0.538 | 3.69 | 3.05 | 3.28 | 3.1 | 0.358 | 2.78 | 3.05 | 2.8 | 1.58 | – | 4.16 | 2.83 | 3.47 | 0.915 | – | –
O=C(CCN1CCC(CCO)CC1)Nc1ccc2c(c1)C(=O)c1ccc(NC(=O)CCN3CCC(CCO)CC3)cc1C2=O | 42.6 | 64.2 | 37.5 | > 100 | – | > 100 | 28.6 | – | 64 | 24 | > 100 | 68.8 | > 100 | 64.6 | 13.6 | > 100 | – | 29.1 | 55.7 | –
CC(=O)Oc1ccc(Nn2c3ccccc3c3ccccc32)c(C)c1 | > 100 | – | > 100 | – | 74.3 | 64 | > 100 | – | – | 46.3 | – | > 100 | 82.4 | > 100 | > 100 | > 100 | – | 79.9 | 65.5 | –
O=C(Cc1ccccc1)NN1C(=O)C(Cl)C1c1cccc([N+](=O)[O-])c1 (stereo not given) | 54 | – | > 100 | > 20 | > 100 | 30.5 | > 100 | – | – | 3.64 | > 100 | > 100 | > 100 | > 100 | > 73.8 | > 100 | – | > 89.1 | 22.1 | –
O=C(Cc1ccccc1)N/N=C(/c1nc2ccc([N+](=O)[O-])cc2[nH]c1=O)C(O)c1ccccc1Cl (stereo not given) | > 100 | > 100 | > 100 | > 100 | > 100 | > 100 | > 100 | – | > 100 | > 100 | > 100 | – | > 100 | > 100 | > 100 | > 100 | – | > 100 | > 100 | –
CSC1=C(C#N)C(=O)N(c2ccc(C)cc2)C(=O)C1C#N (stereo not given) | > 100 | – | > 100 | > 100 | > 100 | 82 | > 100 | > 100 | > 100 | > 100 | > 100 | > 100 | > 100 | > 100 | > 100 | > 100 | – | > 100 | > 100 | –
C(=N\NC1=NCCN1)/c1cccc2cc3ccncc3nc12 | – | 5.04 | 19.7 | 10.5 | 28.3 | 6.4 | 23.4 | 10.5 | 3.39 | 11.9 | 14.9 | 21.4 | 13.1 | 15.5 | – | 14.2 | 25.2 | 6.91 | – | –
N#Cc1ccc(C(C2C(=O)NC(=O)NC2=O)C2C(=O)NC(=O)NC2=O)cc1 | > 100 | – | > 100 | > 100 | > 100 | > 100 | > 100 | – | > 100 | > 100 | > 100 | > 100 | > 100 | > 100 | > 100 | > 100 | – | > 100 | > 100 | –
O=C1CCCC2=C1CC1=C(CCCC1=O)N2c1ccc([N+](=O)[O-])cc1 | > 100 | > 100 | – | > 100 | > 100 | – | – | – | > 100 | – | > 100 | > 100 | > 100 | – | – | > 100 | > 100 | > 100 | > 100 | –
Nc1nc(N)c2ncn(-c3ccccc3)c2n1 | – | – | > 100 | > 100 | > 100 | > 100 | > 100 | > 100 | > 100 | > 100 | > 100 | > 100 | > 100 | > 100 | > 100 | > 100 | > 100 | > 100 | – | 43.3 µM and 89.6 µM
O=C(Cc1ccccc1)N/N=C(/c1nc2ccc([N+](=O)[O-])cc2[nH]c1=O)C(O)c1ccc(C(O)/C(=N/NC(=O)Cc2ccccc2)c2nc3ccc([N+](=O)[O-])cc3[nH]c2=O)cc1 (stereo not given) | > 100 | > 100 | > 100 | > 100 | > 100 | > 100 | > 100 | – | > 100 | 94.6 | > 100 | > 100 | > 100 | > 100 | > 100 | – | – | > 100 | – | –
O=C1C=CC(=O)c2cc(Sc3ccccc3)c(=O)c(Sc3ccccc3)cc21 | 61.9 | > 100 | > 100 | > 100 | > 100 | 50.5 | – | – | > 100 | 25.4 | > 100 | > 100 | > 100 | > 100 | > 100 | > 100 | – | > 100 | > 100 | –
CCOC(=O)Nc1n[nH]nc1Cl | > 100 | > 100 | > 100 | > 100 | > 100 | – | > 100 | > 100 | > 100 | > 100 | > 100 | – | > 100 | > 100 | > 100 | > 100 | > 100 | > 100 | – | –
CC(=O)SC(SC(C)=O)SC(C)=O | > 100 | > 100 | > 100 | > 100 | > 100 | – | > 100 | – | > 100 | 45.2 | > 100 | > 100 | > 100 | 82.9 | > 100 | > 100 | – | > 100 | – | –
CN(C)CC1CCCCCCCCCCCCC(CN(C)C)C1=O (stereo not given) | – | 24.6 | 30.3 | 18.5 | 25.9 | 26.3 | 29.4 | – | 21.3 | – | 37.3 | 31.6 | 34.8 | 27.6 | 26 | 26.8 | – | 20.6 | 14 | –
CCCCN(CCCC)CC(C(=O)Nc1ccc([N+](=O)[O-])cc1[N+](=O)[O-])/C(C)=N\NC(=O)C[N+](C)(C)C (stereo not given) | > 100 | > 100 | > 100 | > 100 | > 100 | > 100 | > 100 | – | > 100 | > 100 | > 100 | > 100 | > 100 | > 100 | > 100 | > 100 | – | – | 49.7 | –
CC(=O)Oc1c(Br)ccc2cc(C(Br)Br)c(C(=O)c3ccccc3)nc12 | 44.1 | 46 | 34.4 | 40.1 | 40.8 | – | 51 | – | 50.9 | 14.8 | 39.4 | 39.1 | 44.2 | 52.7 | 48.2 | 35.9 | – | 48.2 | 74.2 | –
C/C1=C/C[C@@H](/C(C)=C/c2csc(C)n2)OC(=O)C[C@H](O)C(C)(C)C(=O)[C@H](C)[C@@H](O)[C@@H](C)CCC1 | – | – | 0.259 | 0.335 | 0.23 | 0.302 | – | – | 0.143 | < 0.0001 | 0.215 | 0.189 | 0.237 | – | 0.188 | 0.181 | 0.000238 | 0.24 | – | –
COC1=CC(=O)c2c(cc3c(c2O)-c2c(OC)cc4cc5c(c(O)c4c2OC(=O)CC(C)(O)C3)C(=O)CC(C)(O)C5)C1=O (stereo not given) | 12.6 | 3.51 | 2.76 | 6.59 | 2.66 | 4.12 | 4.04 | – | 2.94 | 2.67 | 5.58 | 4.13 | 4.36 | 3.17 | 2.71 | 3.71 | – | 6.3 | 5.07 | –
CN(C)CCN(C)C(=O)C1CCCN1C(=O)OCc1ccccc1 (stereo not given) | > 100 | > 100 | > 100 | > 100 | > 100 | > 100 | > 100 | – | > 100 | 24 | > 100 | > 100 | > 100 | > 100 | > 100 | > 100 | – | > 100 | > 100 | –
CC1CCC2CC1NC(=O)CCOCCC(=O)NC2(C)C (stereo not given) | > 100 | > 100 | > 100 | > 100 | > 100 | > 100 | – | > 100 | > 100 | > 100 | > 100 | > 100 | > 100 | > 100 | – | > 100 | – | > 100 | > 100 | –
